In ChEMBL document CHEMBL3124779, “Discovery of ABT-267, a pan-genotypic inhibitor of HCV NS5A” (J Med Chem, 2014):
Converted amounts (≈) assume the structure as drawn.

Assays:
Hepatitis C virus [1] = assay: Antiviral activity against HCV genotype 1 infected in human assessed as cure rate; type: functional, Hepacivirus hominis
[2] = AUC in monkey at 2.5 mg/kg, po; type: ADME, organism-based, Macaca mulatta; set-up: dose 2.5 mg/kg, route oral; conditions: rhesus monkey, plasma
[3] = Oral bioavailability in monkey at 2.5 mg/kg; type: ADME, organism-based, Macaca mulatta; conditions: rhesus monkey, in vivo
[4] = Tmax in monkey at 2.5 mg/kg, po; type: ADME, organism-based, Macaca mulatta; set-up: dose 2.5 mg/kg, route oral; conditions: rhesus monkey, in vivo
[5] = Cmax in monkey at 2.5 mg/kg, po; type: ADME, organism-based, Macaca mulatta; set-up: dose 2.5 mg/kg, route oral; conditions: rhesus monkey, in vivo
[6] = Half life in monkey at 2.5 mg/kg, po; type: ADME, organism-based, Macaca mulatta; set-up: dose 2.5 mg/kg, route oral; conditions: rhesus monkey, in vivo
[7] = Volume of distribution at steady state in monkey at 1 mg/kg, iv; type: ADME, organism-based, Macaca mulatta; set-up: dose 1 mg/kg, route intravenous; conditions: rhesus monkey, in vivo, read-out: Vdss
[8] = Clearance in monkey at 1 mg/kg, iv; type: ADME, organism-based, Macaca mulatta; set-up: dose 1 mg/kg, route intravenous; conditions: rhesus monkey, in vivo
[9] = Half life in monkey at 1 mg/kg, iv; type: ADME, organism-based, Macaca mulatta; set-up: dose 1 mg/kg, route intravenous; conditions: rhesus monkey, in vivo
[10] = AUC in dog at 2.5 mg/kg, po; type: ADME, organism-based, Canis lupus familiaris; set-up: dose 2.5 mg/kg, route oral; conditions: plasma
[11] = Oral bioavailability in dog at 2.5 mg/kg; type: ADME, organism-based, Canis lupus familiaris; conditions: in vivo
[12] = Cmax in dog at 2.5 mg/kg, po; type: ADME, organism-based, Canis lupus familiaris; set-up: dose 2.5 mg/kg, route oral; conditions: in vivo
[13] = Half life in dog at 2.5 mg/kg, po; type: ADME, organism-based, Canis lupus familiaris; set-up: dose 2.5 mg/kg, route oral; conditions: in vivo
[14] = Tmax in dog at 2.5 mg/kg, po; type: ADME, organism-based, Canis lupus familiaris; set-up: dose 2.5 mg/kg, route oral; conditions: in vivo
[15] = Clearance in dog at 1 mg/kg, iv; type: ADME, organism-based, Canis lupus familiaris; set-up: dose 1 mg/kg, route intravenous; conditions: in vivo
[16] = Half life in dog at 1 mg/kg, iv; type: ADME, organism-based, Canis lupus familiaris; set-up: dose 1 mg/kg, route intravenous; conditions: in vivo
[17] = Volume of distribution at steady state in dog at 1 mg/kg, iv; type: ADME, organism-based, Canis lupus familiaris; set-up: dose 1 mg/kg, route intravenous; conditions: in vivo, read-out: Vdss
[18] = Oral bioavailability in rat at 3 mg/kg; type: ADME, organism-based; conditions: in vivo
[19] = Cmax in rat at 3 mg/kg, po; type: ADME, organism-based; set-up: dose 3 mg/kg, route oral; conditions: in vivo
[20] = AUC in rat at 3 mg/kg, po; type: ADME, organism-based; set-up: dose 3 mg/kg, route oral; conditions: plasma
[21] = Tmax in rat at 3 mg/kg, po; type: ADME, organism-based; set-up: dose 3 mg/kg, route oral; conditions: in vivo
[22] = Clearance in rat at 3 mg/kg, iv; type: ADME, organism-based; set-up: dose 3 mg/kg, route intravenous; conditions: in vivo
[23] = Half life in rat at 3 mg/kg, po; type: ADME, organism-based; set-up: dose 3 mg/kg, route oral; conditions: in vivo
[24] = Volume of distribution at steady state in rat at 3 mg/kg, iv; type: ADME, organism-based; set-up: dose 3 mg/kg, route intravenous; conditions: in vivo, read-out: Vdss
[25] = Metabolic stability in human liver microsomes assessed as compound remaining after 30 mins; type: ADME; conditions: read-out: Stability
[26] = Half life in rat at 3 mg/kg, iv; type: ADME, organism-based; set-up: dose 3 mg/kg, route intravenous; conditions: in vivo
[27] = Kinetic solubility of the compound in 10 mM of phosphate buffer at pH 7.2 by CLND method; type: physicochemical; conditions: read-out: Kinetic_solubility
[28] = Metabolic stability in rat liver microsomes assessed as compound remaining after 30 mins; type: ADME; conditions: read-out: Stability
[29] = Lipophilicity, log D of the compound at pH 7.4 by HPLC analysis; type: physicochemical; conditions: buffer
Hepatitis C virus [30] = assay: Ratio of EC50 for HCV1b Con1 infected in human HuH7 cells in presence of 40% human plasma to EC50 for HCV1b Con1 infected in human HuH7 cells in absence of 40% human plasma; type: functional, Hepacivirus hominis, isolate Con1, Huh-7
Hepatitis C virus [31] = assay: Ratio of EC50 for HCV1a H77 infected in human HuH7 cells in presence of 40% human plasma to EC50 for HCV1a H77 infected in human HuH7 cells in absence of 40% human plasma; type: functional, Hepacivirus hominis, genotype 1a H77, Huh-7
Hepatitis C virus [32] = assay: Antiviral activity against HCV1b Con1 infected in human HuH7 cells assessed as inhibition of viral replication after 4 days by luciferase reporter gene assay in presence of 40% human plasma; type: functional, organism-based, Hepacivirus hominis; conditions: isolate Con1, Huh-7, Plasma, 96 h
Hepatitis C virus [33] = assay: Antiviral activity against HCV1a H77 infected in human HuH7 cells assessed as inhibition of viral replication after 4 days by luciferase reporter gene assay in presence of 40% human plasma; type: functional, organism-based, Hepacivirus hominis; conditions: genotype 1a H77, Huh-7, Plasma, 96 h
Hepatitis C virus [34] = assay: Antiviral activity against HCV1a H77 infected in human HuH7 cells assessed as inhibition of viral replication after 4 days by luciferase reporter gene assay; type: functional, organism-based, Hepacivirus hominis; conditions: genotype 1a H77, Huh-7, 96 h
Hepatitis C virus [35] = assay: Antiviral activity against HCV1b Con1 infected in human HuH7 cells assessed as inhibition of viral replication after 4 days by luciferase reporter gene assay; type: functional, organism-based, Hepacivirus hominis; conditions: isolate Con1, Huh-7, 96 h

AUC [2] | bioavailability [3] | Tmax [4] | Cmax [5] | half-life [6] | Vd [7] | clearance [8] | half-life [9] | AUC [10] | bioavailability [11] | Cmax [12] | half-life [13] | Tmax [14] | clearance [15] | half-life [16] | Vd [17] | bioavailability [18] | Cmax [19] | AUC [20] | SMILES | Activity (Hepatitis C virus [1]) | also measured
– | – | – | – | – | – | – | – | – | – | – | – | – | – | – | – | – | – | – | CC(C)(C)NC(=O)N[C@H](C(=O)N1C[C@H]2[C@@H]([C@H]1C(=O)NC(CC1CCC1)C(=O)C(N)=O)C2(C)C)C(C)(C)C (stereo not given in full) [BOCEPREVIR] | <=75% | –
– | – | – | – | – | – | – | – | – | – | – | – | – | – | – | – | – | – | – | CCC[C@H](NC(=O)[C@@H]1[C@H]2CCC[C@H]2CN1C(=O)[C@@H](NC(=O)[C@@H](NC(=O)c1cnccn1)C1CCCCC1)C(C)(C)C)C(=O)C(=O)NC1CC1 | <=75% | –
490 ng·h/mL | 18% | 1.7 h | 120 ng/mL | 5.4 h | 4.1 L/kg | 15.5 mL/min/kg | 4.6 h | 18300 ng·h/mL | 94% | 1070 ng/mL | 10.3 h | 2.7 h | 2.17 mL/min/kg | 9.1 h | 1.6 L/kg | 39% | 960 ng/mL | 10200 ng·h/mL | COC(=O)N[C@H](C(=O)N1CCC[C@H]1C(=O)Nc1ccc([C@H]2CC[C@H](c3ccc(NC(=O)[C@@H]4CCCN4C(=O)[C@@H](NC(=O)OC)C(C)(C)C)cc3)N2c2ccc(F)cc2)cc1)C(C)(C)C | – | Tmax [21]: 2.3 h; clearance [22]: 1.67 mL/min/kg; half-life [23]: 7 h; Vd [24]: 1 L/kg; remaining at 0.5 h [25]: 54%; half-life [26]: 7.5 h; solubility kinetic [27]: 3.9 µM (≈ 3.45 µg/mL); remaining at 0.5 h [28]: 69%; logD [29]: 5.2; Ratio EC50 (Hepatitis C virus [30]): 20; Ratio EC50 (Hepatitis C virus [31]): 18; EC50 (Hepatitis C virus [32]): 0.162 nM; EC50 (Hepatitis C virus [33]): 20.8 nM; EC50 (Hepatitis C virus [34]): 1.18 nM; EC50 (Hepatitis C virus [35]): 0.008 nM
80 ng·h/mL | 10% | 1.5 h | 50 ng/mL | 0.6 h | 1.5 L/kg | 51.7 mL/min/kg | 0.8 h | 1280 ng·h/mL | 62% | 420 ng/mL | 2.2 h | 1.2 h | 21.7 mL/min/kg | 2 h | 1.9 L/kg | 22% | 1380 ng/mL | 6360 ng·h/mL | COC(=O)N[C@H](C(=O)N1CCC[C@H]1C(=O)Nc1ccc([C@H]2CC[C@H](c3ccc(NC(=O)[C@@H]4CCCN4C(=O)[C@@H](NC(=O)OC)C(C)C)cc3)N2c2ccc(F)cc2)cc1)C(C)C | – | Tmax [21]: 1.3 h; clearance [22]: 2.17 mL/min/kg; half-life [23]: 2.8 h; Vd [24]: 0.5 L/kg; remaining at 0.5 h [25]: 38%; half-life [26]: 3.3 h; solubility kinetic [27]: 6 µM (≈ 5.14 µg/mL); remaining at 0.5 h [28]: 38%; logD [29]: 4.6; Ratio EC50 (Hepatitis C virus [30]): 5; Ratio EC50 (Hepatitis C virus [31]): 4; EC50 (Hepatitis C virus [32]): 0.208 nM; EC50 (Hepatitis C virus [33]): 11.1 nM; EC50 (Hepatitis C virus [34]): 2.53 nM; EC50 (Hepatitis C virus [35]): 0.042 nM
